Laboratory results reported in patent publication US11865101B2, “Cromolyn metal complexes as enhanced pharmaceutical formulations and method of preparing the same” (University of Puerto Rico, priority 2020, dated 2024).

What was measured:
[1] = Dissolution / stability in FaSSGF (pH 1.60) at 37° C.; type: physicochemical; details: FaSSGF pH=1.60, 37° C.
Experimental: Dissolution profiles—Dissolution profiles were recorded for CS, Cromolyn-Zn, Cromolyn-Mg, and Cromolyn-Ca and quantified by measuring absorbance at 237 nm against a reagent blank containing the buffered media. Dissolution tests were performed in a PBS buffer (pH=7.40) and FaSSGF (pH=1.60) at 37° C. under constant stirring (150 rpm). Absorbance measurements were performed on an Agilent Technologies Cary Series UV-Vis Spectrophotometer, Cary 100 UV-Vis model; using the UV Cary Scan software version v.20.0.470.
The stability of these materials in biologically relevant media was used to understand the ability of the pMCs to sustain blood plasma concentration for CS. A higher blood concentration might allow for longer circulation times and adequate delivery to the target tissues and organs. This is currently a pharmacological disadvantage for oral formulations of CS (<1% bioavailability and low solubility ˜100.0 mg/mL at 20° C.). […] Therefore, no further dissolution studies were carried out in this media.

[2] = Dissolution profile in PBS (pH 7.40) at 37° C., UV absorbance at 237 nm; type: physicochemical; details: PBS pH=7.40, 37° C., 150 rpm, after 1 hr
Experimental: Dissolution profiles—Dissolution profiles were recorded for CS, Cromolyn-Zn, Cromolyn-Mg, and Cromolyn-Ca and quantified by measuring absorbance at 237 nm against a reagent blank containing the buffered media. Dissolution tests were performed in a PBS buffer (pH=7.40) and FaSSGF (pH=1.60) at 37° C. under constant stirring (150 rpm). Absorbance measurements were performed on an Agilent Technologies Cary Series UV-Vis Spectrophotometer, Cary 100 UV-Vis model; using the UV Cary Scan software version v.20.0.470. Stock Solution: A standard stock solution of CS was prepared by dissolving 10 mg in a 100 mL (0.1 mg/mL) volumetric flask and completing to volume with PBS. Dilute solutions were obtained by appropriate dilution of this stock solution. […] PBS was used as the solvent. The absorbance of CS was measured at maximum absorption wavelength (λmax) of 237 nm against a solvent blank (PBS). […] Dissolution profiles were recorded for CS, Cromolyn-Zn, Cromolyn-Mg, and Cromolyn-Ca. […] The absorbance of CS was measured at 237 nm against the solvent blank. […] Absorbance measurements were performed on an Agilent Technologies Cary Series UV-Vis Spectrophotometer, Cary 100 UV-Vis; using the UV Cary Scan software version v.20.0.470. […] The absorbance was measured at the maximum wavelength (λmax=237 nm) for CS as the degradation of the pMCs progressed in PBS over time. […]

[3] = orally administered, absorption from the gastrointestinal tract; cited from earlier work
[4] = at 20° C.; cited from earlier work
[5] = noted by others; above it CS forms supramolecular aggregates; cited from earlier work

O=C(O)c1cc(=O)c2c(OCC(O)COc3cccc4oc(C(=O)O)cc(=O)c34)cccc2o1 [CS, cromolyn sodium]
dissolution / degradation in FaSSGF [1]: no detectable dissolution
maximum concentration of CS dissolved [2]: ~98%
bioavailability [3]: < 1%
solubility [4]: ~100.0 mg/mL
critical self-association concentration [5]: 10.00 mg/mL
